From publication PMC8533202, “Design of Inhibitors of the Intrinsically Disordered Protein NUPR1: Balance between Drug Affinity and Target Function” (Biomolecules, 2021)

How the values were obtained:
NUPR1 = target: T1, NUPR1 (Homo sapiens, UniProt O60356); assay: Isothermal titration calorimetry (ITC) binding to NUPR1; details: 25 °C; for N (stoichiometry) / ΔG / ΔH / −TΔS: pH 7.0; for Ka / Kd: sodium phosphate 20 mM, pH 7.0, 2% DMSO; for Kd: read-out: Kd (=1/Ka)
T1 construct: made in house
T1 sequence (O60356 1-82): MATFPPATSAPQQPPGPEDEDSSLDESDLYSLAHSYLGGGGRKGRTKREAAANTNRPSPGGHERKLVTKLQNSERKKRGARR
Description: The binding of the ZZW-115-derived compounds to NUPR1 was determined as described by using a high sensitivity isothermal titration calorimeter Auto-iTC200 (MicroCal, Malvern-Panalytical, Malvern, UK). Protein samples and solutions were properly degassed. Experiments were performed with freshly prepared protein solutions at 25 °C. A solution of NUPR1 (20 μM, in sodium phosphate 20 mM, pH 7.0, 2% DMSO) in the calorimetric cell was titrated with a solution of each compound (200 μM, in sodium phosphate 20 mM pH 7.0, 2% DMSO). The inhibitors were dissolved in the same buffer used for the protein. A standard protocol was employed: 19 titrant injections with 2 μL compound solution were programmed with a time spacing of 150 s, a stirring speed of 750 rpm, and a reference power of 10 μcal/s. The heat evolved after each ligand injection was calculated from the integral of the calorimetric signal. The heat due to the binding reaction was obtained as the difference between the reaction heat and the corresponding heat of injection, the latter estimated as a constant value throughout the experiment, and included as an adjustable parameter in the analysis. Control experiments (with the compounds injected into the buffer) were performed under the same experimental conditions.
The association constant (Ka), the enthalpy change (ΔH) and the stoichiometry (n) of the binding reaction were obtained through nonlinear regression analysis of experimental data to a model assuming a single ligand binding site for the protein. Experiments were performed in replicate and data were analyzed using in-house-developed software implemented in Origin 7 (OriginLab).
The interaction between ZZW-115-Derived compounds and NUPR1 was studied by using ITC, the gold-standard technique in binding-affinity determination, to test our theoretical prediction. […] From the thermogram (thermal power as a function of time), the binding isotherm (ligand-normalized heat as a function of the molar ratio) was obtained through integration of the individual heat effect associated with injection of each ligand solution (Figure 3). We used a nonlinear least-squares regression analysis employing a model that considered a single binding site in NUPR1 to estimate binding parameters such as the dissociation constant and the binding enthalpy.

MiaPaCa-2 cells = assay: Cell viability assay (PrestoBlue); type: cell-based, human; details: Homo sapiens, MIA PaCa-2, 72 h, MiaPaCa-2, 72 h
Description: (§1) Cell viability was evaluated in ten pancreatic cancer cell lines, including MiaPaCa-2, and nine primary pancreatic cancer-derived cell lines: PDAC001T, PDAC012T, PDAC021T, PDAC081T, PDAC082T, PDAC087T, PDAC088T, PDAC089T, and PDAC115T. MiaPaCa-2 cells were obtained from ATCC (Manassas, VA, USA) and maintained in DMEM (Invitrogen, Cergy-Pontoise, France), supplemented with 10% […] at 37 °C with 5% CO2. The primary pancreatic cancer-derived cells were cultured in serum free ductal media (SFDM) following a procedure adapted from those previously described, without antibiotic, and incubated at 37 °C in a 5% CO2 incubator. Cells were plated in 96-well plates (5000 cells/well) overnight. Then, the media were supplemented with the compounds to be tested at 0–100 µM concentration, and the samples were incubated for another additional 72 h before performing the measurement. Cell viability was estimated after addition of PrestoBlue™ reagent (Life Technologies, Paris, France) for 3 h according to the PrestoBlue™ cell viability reagent protocol provided by the supplier. Cell viability was normalized when comparing to untreated cell rates. Experiments were performed in triplicate and each set was repeated three times, with similar results.

PDAC021T cells = assay: Cell viability assay (PrestoBlue); type: cell-based; details: Homo sapiens; PDAC021T (basal subtype), 72 h
Excerpt: (§2) Primary pancreatic cancer cells PDAC001T, PDAC012T, PDAC021T, PDAC081T, PDAC082T, PDAC087T, PDAC088T, PDAC089T, and PDAC115T were obtained from the PaCaOmics clinical trial registered at www.clinicaltrials.gov (accessed on 2 October 2021) with registration number NCT01692873. We included PDAC samples from both echoendoscopic ultrasound-guided fine-needle (EUS-FNA) biopsies for patients with unresectable tumors and from surgical specimens for patients undergoing surgery. The tumor samples of these patients were used to generate patient-derived xenograft in nude mice as previously reported. Xenografts obtained from mice were split into several small pieces and used for cell culture in a biosafety chamber: after fine mincing, they were treated with collagenase type V (ref C9263; Sigma-Aldrich, St. Louis, MO, USA) and trypsin/EDTA (ref 25200-056; Gibco, Life Technologies, Grand Island, NY, USA) and were suspended in Dulbecco’s modified Eagle’s medium supplemented with 1% w/w penicillin/streptomycin (Gibco, Life Technologies, Paisley, UK) and 10% fetal bovine serum (Lonza Inc., Walkersville, MD, USA). After centrifugation, cells were resuspended in serum-free ductal media adapted from Schreiber et al. at 37 °C in a 5% CO2 incubator. Amplified cells were stored in liquid nitrogen as previously reported. Cells were weaned from antibiotics for ≥48 h before testing.
as §1

PDAC082T cells = assay: Cell viability assay (PrestoBlue); type: cell-based; details: Homo sapiens; PDAC082T (classical subtype), 72 h
Excerpt: as §2, §1

PDAC089T cells = assay: Cell viability assay (PrestoBlue); type: cell-based; details: Homo sapiens; PDAC089T (derived from a liver metastasis), 72 h
Excerpt: as §2, §1

PDAC001T cells = assay: Cell viability assay (PrestoBlue); type: cell-based; details: Homo sapiens; PDAC001T (basal subtype), 72 h
Excerpt: as §2, §1

PDAC088T cells = assay: Cell viability assay (PrestoBlue); type: cell-based; details: Homo sapiens; PDAC088T (classical subtype), 72 h
Excerpt: as §2, §1

PDAC087T cells = assay: Cell viability assay (PrestoBlue); type: cell-based; details: Homo sapiens; PDAC087T (basal subtype), 72 h
Excerpt: as §2, §1

PDAC115T cells = assay: Cell viability assay (PrestoBlue); type: cell-based; details: Homo sapiens; PDAC115T (basal subtype), 72 h
Excerpt: as §2, §1

PDAC081T cells = assay: Cell viability assay (PrestoBlue); type: cell-based; details: Homo sapiens; PDAC081T (classical subtype), 72 h
Excerpt: as §2, §1

PDAC012T cells = assay: Cell viability assay (PrestoBlue); type: cell-based; details: Homo sapiens; PDAC012T (classical subtype), 72 h
Excerpt: as §2, §1

| Compound | N (stoichiometry) (NUPR1) | ΔG (NUPR1) [kcal mol^–1] | ΔH (NUPR1) [kcal mol^–1] | −TΔS (NUPR1) [kcal mol^–1] | Ka (NUPR1) [M^–1 × 10^5] | Kd (NUPR1) [µM] | IC50 (MiaPaCa-2 cells) [µM] | IC50 (PDAC021T cells) [µM] | IC50 (PDAC082T cells) [µM] | IC50 (PDAC089T cells) [µM] | IC50 (PDAC001T cells) [µM] | IC50 (PDAC088T cells) [µM] | IC50 (PDAC087T cells) [µM] | IC50 (PDAC115T cells) [µM] | IC50 (PDAC081T cells) [µM] | IC50 (PDAC012T cells) [µM] |
| --- | --- | --- | --- | --- | --- | --- | --- | --- | --- | --- | --- | --- | --- | --- | --- | --- |
| FC(F)(F)c1ccc2c(c1)N(CCCN1CCN(CCCN3CCCC3)CC1)c1ccccc1S2 [ZZW-144] | 1.2 ± 0.1 | −6.7 ± 0.1 | 0.5 ± 0.5 | −7.2 ± 0.5 | 0.85 ± 0.8 | 12 ± 1 | 0.26 | 3.69 | 3.04 | 8.38 | 2.51 | 5.8 | 3.57 | 3.22 | 0.98 | 2.51 |
| CCN(CC)CCCN1CCN(CCCN2c3ccccc3Sc3ccc(C(F)(F)F)cc32)CC1 [ZZW-143] | 1.2 ± 0.1 | −6.4 ± 0.1 | 0.8 ± 0.4 | −7.2 ± 0.4 | 0.5 ± 0.1 | 20 ± 4 | 0.29 | 2.57 | 3.55 | 6.12 | 2.31 | 5.94 | 2.22 | 2.5 | 0.97 | 2.18 |
| FC(F)(F)c1ccc2c(c1)N(CCCN1CCN(CCCN3CCOCC3)CC1)c1ccccc1S2 [ZZW-148] | 1.2 ± 0.1 | −6.8 ± 0.1 | 0.7 ± 0.5 | −7.5 ± 0.5 | 1.0 ± 0.1 | 9.6 ± 1 | 0.47 | 4.35 | 4.1 | 14.8 | 3.75 | 10.7 | 6.57 | 4.37 | 1.11 | 3.7 |
| CCN(CC)CCN1CCN(CCCN2c3ccccc3Sc3ccc(C(F)(F)F)cc32)CC1 [ZZW-129] | 1.2 ± 0.1 | −7.5 ± 0.1 | −0.7 ± 0.4 | −6.8 ± 0.4 | 3.1 ± 0.3 | 3.2 ± 0.3 | 0.33 | 3.41 | 3.56 | 7.9 | 1.94 | 7.28 | 4.28 | 2.46 | 0.86 | 2.77 |

Now from value to compound, other results behind:

| N (stoichiometry) (NUPR1) | ΔG (NUPR1) [kcal mol^–1] | ΔH (NUPR1) [kcal mol^–1] | −TΔS (NUPR1) [kcal mol^–1] | Ka (NUPR1) [M^–1 × 10^5] | Kd (NUPR1) [µM] | IC50 (MiaPaCa-2 cells) [µM] | Compound | IC50 (PDAC021T cells) [µM] | IC50 (PDAC082T cells) [µM] | IC50 (PDAC089T cells) [µM] | IC50 (PDAC001T cells) [µM] | IC50 (PDAC088T cells) [µM] | IC50 (PDAC087T cells) [µM] | IC50 (PDAC115T cells) [µM] | IC50 (PDAC081T cells) [µM] | IC50 (PDAC012T cells) [µM] |
| --- | --- | --- | --- | --- | --- | --- | --- | --- | --- | --- | --- | --- | --- | --- | --- | --- |
| 1.2 ± 0.1 | −6.7 ± 0.1 | 0.7 ± 0.5 | −7.4 ± 0.5 | 0.82 ± 0.9 | 11 ± 1 | 0.19 | FC(F)(F)c1ccc2c(c1)N(CCCN1CCN(CCCN3CCCCC3)CC1)c1ccccc1S2 [ZZW-145] | 2.33 | 2.33 | 6.22 | 2.36 | 5 | 2.37 | 2.44 | 0.78 | 2.36 |
| 0.8 ± 0.1 | −7.7 ± 0.1 | 0.5 ± 0.3 | −8.2 ± 0.3 | 4.7 ± 0.3 | 2.1 ± 0.1 | 0.3 | FC(F)(F)c1ccc2c(c1)N(CCCN1CCN(CCN3CCCCC3)CC1)c1ccccc1S2 [ZZW-131] | 6.47 | 6.49 | 10.6 | 3.98 | 8.11 | 4.43 | 5.75 | 0.97 | 5.25 |
| 1.4 ± 0.1 | −7.9 ± 0.1 | 0.3 ± 0.3 | −8.2 ± 0.3 | 6.4 ± 0.4 | 1.6 ± 0.1 | 0.35 | FC(F)(F)c1ccc2c(c1)N(CCCN1CCN(CCN3CCCC3)CC1)c1ccccc1S2 [ZZW-130] | 3.81 | 4.33 | 6.03 | 2.45 | 6.75 | 4.95 | 2.91 | 1.12 | 4.18 |
